This note sets out measurements from patent publication US20240254138A1, “TRICYCLIC PYRIMIDINES AS CYCLIN-DEPENDENT KINASE 7 (CDK7) INHIBITORS” (JANSSEN PHARMACEUTICA NV, priority 2021, published 2024).

One may read the kinact as the rate constant of inactivation at saturating inhibitor.

Where two headings read alike, the source gives them in different places. Bounds are passed on as bounds.

In assay [1] the test system is RNA Polymerase II Serine 5 phosphorylation in A549 cells overexpressing CDK7-mutant (C312S). Kind of assay: Imaging-based cellular RNA PolII Ser5 phosphorylation assay in A549 cells overexpressing CDK7-mutant (C312S). The class given is cell-based, human. To be noted: RNA PolII Ser5 phosphorylation, averaged over all measurements; for IC50: Homo sapiens, A549, A549 cells overexpressing CDK7-mutant (C312S), read-out: CDK7_A549 mutant hCDK7(pIC50) (converted). From the text: (§1) To evaluate inhibition of CDK7 kinase activity, a 384-well automated imaging assay was used. This assay detects Serine 5 phosphorylation on a unique heptapeptide sequence in the C-terminal domain of Rpb1 subunit of RNA polymerase II, the downstream substrate of CDK7. This heptapeptide sequence is repeated up to 52 times in the CTD of Rpb1.
(§2) A549 adenocarcinoma human alveolar basal epithelial cells (ATCC, CCL-185), rabbit Phospho-Rpb1 CTD (Ser5) antibody (D9N51 (Cell Signaling Technology)), DMEM (Sigma), Fetal Bovine Serum (Biowest), L-glutamine (Sigma), Penicillin/Streptomycin (Life Technologies), Sodium Pyruvate (Sigma), Hepes (Sigma), poly-D-lysine coated μclear 384 black plates (Greiner), formaldehyde (PolySciences), D-PBS (Sigma), Methanol (Sigma), Alexa Fluor 488 goat anti rabbit IgG secondary antibody (Life Technologies), HCS CellMask™ Deep Red stain (Life Technologies), Hoechst 33258 (Invitrogen).
(§3) RNA Polymerase II Serine 5 phosphorylation was detected using a specific rabbit Phospho-Rpb1 CTD (Ser5) antibody. A549 adenocarcinoma human alveolar basal epithelial cells were seeded in 20 μl medium (DMEM supplemented with 1% Fetal Bovine Serum (heat inactivated 30′ 56° C.), 2 mM L-glutamine, 50 U/ml penicillin 50 μg/ml streptomycin, 1 mM sodium pyruvate and 50 mM hepes) at 1000 cells/well and cultured in poly-D-lysine coated μclear 384 black plates for 20 hours at 37° C. and 5% CO2.
(§4) After incubation cells were challenged with compound for 3 hours at 37° C. and 5% CO2. DMSO was used as high control and as low control 10 μM of the following reference compound was used:
(§5) 40 nl of test compounds and controls were spotted in cell plates using Echo Liquid Handler (Echo 550, Labcyte). Incubation was followed by 20 minutes fixation with 20 μl 10% formaldehyde at room temperature. Medium/formaldehyde solution was removed, plates were washed 3 times with 30 μl D-PBS (w/o Ca^2+ and Ma^2+) and permeabilization was done by adding 20 μl ice cold methanol for 20 minutes. Cells were washed again 3 times with 30 μl D-PBS and 20 μl blocking buffer (25 ml fetal bovine serum in 500 ml D-PBS) was added for 1 hour.
(§6) After removing blocking buffer 20 μl 1/1000 primary antibody rabbit Phospho-Rpb1 CTD (Ser5) antibody was added which binds to the phosphorylated Serine5 of the heptapeptide sequences in the CTD of Rpb1. Primary antibody was removed, and plates were washed 3 times with 30 μl D-PBS followed by addition of 20 μl 1/2000 Alexa Fluor 488 goat anti rabbit IgG secondary antibody for final detection of Phospho-Rpb1 CTD (Ser5) together with 1/5000 HCS CellMask™ Deep Red stain for membrane staining and 1/5000 Hoechst 33258 for nucleus staining. Last, plates were washed 2 times with 30 μl D-PBS and wells were filled with 40 μL D-PBS, plates were sealed (Thermowell sealing tape) and stored at 4° C. until reading. Plates were read with Opera Phenix (Perkin Elmer) with 10× air objective. Data were calculated and analyzed in Phaedra.
(§7) IC50 values were calculated using the following formula: […]
(§8) Average value of all HC's and all LC's are used for normalizations.
(§9) A best-fit curve is fitted by a minimum sum of squares method to the plot of % Control vs. compound concentration. From this an IC50 value can be obtained. An estimate of the slope of the plot in terms of the Hill coefficient is also obtained.
In parallel this assay was performed in A549 cells overexpressing CDK7-mutant (C312S) to evaluate the effect of the covalent bond on potency and to screen for potential off-target effects. Mutation of Cysteine to Serine (C312S), a less nucleophilic amino acid, prevents CDK7 inhibitors from covalently binding to CDK7 and from inhibiting CDK7 activity in an irreversible manner. A stably transduced A549 cell pool was generated that overexpresses CDK7 mutant (C312S), but also expresses endogenous CDK7-WT. Covalent binders targeting the cysteine at position 312 will show a shift in potency in A549 cells overexpressing mutant C312S CDK7.

Assay [2] concerns RNA Polymerase II Serine 5 phosphorylation (Rpb1 CTD, downstream substrate of CDK7) in A549 cells. In words: Imaging-based cellular RNA PolII Ser5 phosphorylation assay in A549 cells. It counts as cell-based, human. To be noted: Homo sapiens, A549, A549 cells, wild-type CDK7; RNA PolII Ser5 phosphorylation; averaged over all measurements; read-out: CDK7_A549 Wild-type CDK7 (pIC50) (converted).
Source text: as §1, §2, §3, §4, §5, §6, §7, §8, §9

Assay [3] concerns the target CDK7/cyclinH/MAT1 trimeric complex (Homo sapiens, UniProt P50613). Kind of assay: In vitro CDK7 assay, potency of irreversible covalent inhibitors (kinact/KI), coupled PK/LDH ADP readout at 340 nm.
[4] abbreviates: CDK7 (20 nM enz.) (KI, μM), 20 nM enzyme.
Setting [5] is: read-out: CDK7 (20 nM enz.) (kinact, s^−1), 20 nM enzyme.
Setting [6] is: read-out: CDK7 (20 nM enz.) (kinact/KI, M^−1*s^−1), 20 nM enzyme.
Where [7] appears, read: read-out: CDK7 (20 nM enz.) (kobs/[I], M^−1*s^−1), 20 nM enzyme.

Chain of CDK7/cyclinH/MAT1 trimeric complex (P50613 whole entry): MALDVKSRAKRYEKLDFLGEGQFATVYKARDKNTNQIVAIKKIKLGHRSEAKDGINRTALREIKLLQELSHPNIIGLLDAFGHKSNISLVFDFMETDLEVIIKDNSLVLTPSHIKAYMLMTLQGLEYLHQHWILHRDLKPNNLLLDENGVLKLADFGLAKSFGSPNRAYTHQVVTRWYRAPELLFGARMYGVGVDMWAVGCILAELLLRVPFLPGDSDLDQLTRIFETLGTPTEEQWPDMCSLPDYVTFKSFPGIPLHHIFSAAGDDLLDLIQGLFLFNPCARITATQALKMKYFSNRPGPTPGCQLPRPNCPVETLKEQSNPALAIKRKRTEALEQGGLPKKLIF
Chain of CDK7/cyclinH/MAT1 trimeric complex (P51946 whole entry partner): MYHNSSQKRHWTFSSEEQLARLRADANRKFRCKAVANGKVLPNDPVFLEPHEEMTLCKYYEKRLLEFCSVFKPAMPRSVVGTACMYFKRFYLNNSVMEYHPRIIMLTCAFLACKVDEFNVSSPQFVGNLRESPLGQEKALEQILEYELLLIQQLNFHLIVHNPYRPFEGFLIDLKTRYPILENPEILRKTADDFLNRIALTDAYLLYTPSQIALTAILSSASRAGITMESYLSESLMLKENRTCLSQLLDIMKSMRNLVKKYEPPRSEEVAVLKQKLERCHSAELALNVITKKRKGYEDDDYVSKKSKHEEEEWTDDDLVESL
Chain of CDK7/cyclinH/MAT1 trimeric complex (P51948 whole entry partner): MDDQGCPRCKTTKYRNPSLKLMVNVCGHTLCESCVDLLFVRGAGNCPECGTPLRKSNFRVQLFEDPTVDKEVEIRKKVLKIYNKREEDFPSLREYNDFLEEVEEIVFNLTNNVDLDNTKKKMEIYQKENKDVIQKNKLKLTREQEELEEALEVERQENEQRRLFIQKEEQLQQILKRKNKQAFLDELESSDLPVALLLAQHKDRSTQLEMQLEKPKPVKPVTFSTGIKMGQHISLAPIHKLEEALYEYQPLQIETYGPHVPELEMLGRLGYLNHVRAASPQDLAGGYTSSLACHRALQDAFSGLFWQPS

On to `C=CC(=O)N1CCC(N2CC[C@H](O)[C@@H](c3ccc4c(c3)OCc3c(N5CCOCC5)ccnc3N4)C2)CC1` (mixture of isomers) [Compound 157], for which the IC50 in assay [1] and in assay [2] was more than 10000 nM throughout.
As for `C=CC(=O)N1CC(N2CCN(C)[C@H](c3ccc4c(c3)Nc3nccc(N5CCOCC5)c3CO4)C2)C1` (single isomer, unassigned) [Compound 142], the IC50 in assay [1] is more than 10000 nM; in assay [2], 1450 nM.
The corresponding values for `C=CC(=O)N1CC(N2CCN(C)[C@@H](c3ccc4c(c3)Nc3nccc(N5CCOCC5)c3CO4)C2)C1` (single isomer, unassigned) [Compound 144] are more than 10000 nM and more than 10000 nM.
For the compound `C=CC(=O)N1CC(N2CCC(c3cc4c(cn3)O[C@@H](C)c3c(N5CCOCC5)ccnc3N4)CC2)C1` (single isomer, unassigned) [Compound 172], the Ki in assay [3] (setting [4]) is 1.4 µM. In addition, the kinact in assay [3] (setting [5]) is 5.53e-05 s⁻¹. For the same compound, the kinact/KI in assay [3] (setting [6]) was determined as 39.4 M⁻¹ s⁻¹.
With `C=CC(=O)N1CC[C@@H](N2CCC(c3cc4c(c(C)n3)OCc3c(-c5cnn(C)c5)ccnc3N4)CC2)C1` (single isomer, unassigned) [Compound 182], the IC50 is more than 10000 nM in assay [1] and 38 nM in assay [2].
In the same order, the values of `C=CC(=O)N1CC[C@H](N2CCC(c3cc4c(c(C)n3)OCc3c(-c5cnn(C)c5)ccnc3N4)CC2)C1` (single isomer, unassigned) [Compound 185] are more than 10000 nM and 81.3 nM.
In the same order, the values of `C#CCCN(C)C/C=C/C(=O)N1CC(N2CCC(c3ccc4c(c3)Nc3nccc(C5CCOCC5)c3[C@@H](C)O4)CC2)C1` (single isomer, unassigned) [Compound 186] are more than 10000 nM and 100 nM.
In the same order, the values of `C#CCCN(C)C/C=C/C(=O)N1CC(N2CCC(c3ccc4c(c3)Nc3nccc(C5CCOCC5)c3[C@H](C)O4)CC2)C1` (single isomer, unassigned) [Compound 187] are more than 10000 nM and 4070 nM.
In the case of `C#Cc1cc2c(cc1C1CCN(C3CN(C(=O)C=C)C3)CC1)Nc1nccc(N3CCOCC3)c1[C@H](C)O2` (single isomer, unassigned) [Compound 214], in assay [1] (A549 cells overexpressing CDK7-mutant (C312S)), the “CDK7_A549 mutant hCDK7(pIC50)” value was less than 5. For the same compound, in assay [3] (setting [7]), the kinact/KI was determined as 417 M⁻¹ s⁻¹.
For `C=CC(=O)N1CC(N2CCC(c3ccc4c(c3)Nc3nccc(N5CCOCC5)c3[C@@H](C)O4)CC2)C1` (single isomer, unassigned) [compound 90], the kinact/KI in assay [3] (setting [7]) turned out to be 1190 M⁻¹ s⁻¹.
As for `C=CC(=O)N1CC(N2CCC(c3cc4c(cn3)O[C@H](C)c3c(N5CCOCC5)ccnc3N4)CC2)C1` (single isomer, unassigned) [compound 171], in assay [3] (setting [4]), the Ki worked out at 0.0278 µM. Besides, the kinact in assay [3] (setting [5]) stood at 5.15e-05 s⁻¹. Besides, in assay [3] (setting [6]), the kinact/KI worked out at 1850 M⁻¹ s⁻¹.
Compound `C=CC(=O)N1CC[C@@H](N2CC(c3cc4c(c(C)n3)OCc3c(N5CCOCC5)ccnc3N4)C2)C1` (single isomer, unassigned) [compound 179] had a Ki in assay [3] (setting [4]) of 0.0606 µM. Further, the kinact in assay [3] (setting [5]) was 5.08e-05 s⁻¹. For the same compound, in assay [3] (setting [6]), the kinact/KI was 839 M⁻¹ s⁻¹.
In the same order, the values of `C=CC(=O)N1CC[C@H](N2CC(c3cc4c(c(C)n3)OCc3c(N5CCOCC5)ccnc3N4)C2)C1` (single isomer, unassigned) [compound 180] are 0.0452 µM, 5.34e-05 s⁻¹ and 1180 M⁻¹ s⁻¹.
Turning to `C=CC(=O)N1CC(N2CC(c3cc4c(cn3)O[C@@H](C)c3c(-c5cnn(C)c5)ccnc3N4)C2)C1` (single isomer, unassigned) [compound 300], the Ki in assay [3] (setting [4]) came out at 2.63 µM. In addition, the kinact in assay [3] (setting [5]) was 3.59e-05 s⁻¹. In assay [3] (setting [6]), the kinact/KI was determined as 13.7 M⁻¹ s⁻¹.
`C=CC(=O)N1CC[C@@H](N2CC(c3cc4c(c(C)n3)O[C@@H](C)c3c(-c5cnn(C)c5)ccnc3N4)C2)C1` (single isomer, unassigned) [compound 420] displayed a Ki in assay [3] (setting [4]) of 7.92 µM. Also, the kinact in assay [3] (setting [5]) stood at 4.55e-05 s⁻¹. Further, the kinact/KI in assay [3] (setting [6]) came to 5.74 M⁻¹ s⁻¹.
As for `C=CC(=O)N1CC(N2CCC(c3cc4c(c(C)n3)O[C@H](C)c3c(C5CCOCC5)ccnc3N4)CC2)C1` (single isomer, unassigned) [compound 429], the Ki in assay [3] (setting [4]) is 0.0672 µM. Besides, in assay [3] (setting [5]), the kinact is 9.76e-05 s⁻¹. Moreover, in assay [3] (setting [6]), the kinact/KI was found to be 1450 M⁻¹ s⁻¹.
Turning to `CC#CC(=O)N1CC(N2CC(c3cc4c(c(C)n3)O[C@H](C)c3c(N5CCOCC5)ccnc3N4)C2)C1` (single isomer, unassigned) [compound 444], in assay [3] (20 nM enzyme), the “CDK7 (20 nM enz.) (kinact, s^−1)” value was found to be 4.506e-05 s⁻¹ and the “CDK7 (20 nM enz.) (kinact/KI, M^−1*s^−1)” value was found to be 242.644 M⁻¹ s⁻¹. The compound further had a Ki in assay [3] (setting [4]) of 0.186 µM.
As for `C=CC(=O)N1CC(N2CCC(c3ccc4c(c3)Nc3nccc(N5CCOCC5)c3CO4)C(C)(C)C2)C1` (stereo not shown) [Compound 41], the Ki in assay [3] (CDK7 (KI(μM)), […], 1 mM ATP, room temperature, averaged values over all measurements) was 0.083 µM. In assay [3] (read-out: CDK7 (kinact, s^−1), kinact = maximal rate of inactivation, 1 mM ATP, room temperature, averaged values over all measurements), the kinact stood at 8.37e-05 s⁻¹. Also, in assay [3] (read-out: CDK7 (kinact/KI, M^−1*s^−1), potency of irreversible covalent inhibitors, 1 mM ATP, room temperature, averaged values over all measurements), the kinact/KI was 1010 M⁻¹ s⁻¹.
Turning to `C=CC(=O)N1CC(N2CCC(c3cc(C)c4c(c3)Nc3nccc(N5CCS(=O)(=O)CC5)c3CO4)CC2)C1` [Compound 75], the kinact/KI in assay [3] (setting [7]) amounted to 1100 M⁻¹ s⁻¹.
Consider `C=CC(=O)N1CC(N2CCC(c3cc4c(c(C)n3)OCc3c(C5CCOCC5)ccnc3N4)CC2)C1` [compound 208], for which the Ki in assay [3] (setting [4]) came out at 0.168 µM. For the same compound, in assay [3] (setting [5]), the kinact was determined as 4.84e-05 s⁻¹. The kinact/KI in assay [3] (setting [6]) was 287 M⁻¹ s⁻¹.
`C#CCCN(C)C/C=C/C(=O)N1CC(N2CCC(c3cc(Cl)c4c(c3)Nc3nccc(C5CCOCC5)c3CO4)CC2)C1` [compound 249]: the kinact/KI in assay [3] (setting [7]) came to 1040 M⁻¹ s⁻¹.
On to `C=CC(=O)N1CC(c2nc(C)c(-c3cc4c(c(C)n3)OCc3c(N5CCOCC5)ccnc3N4)c(C)n2)C1` [compound 277], for which the Ki in assay [3] (setting [4]) was 0.156 µM. In addition, the kinact in assay [3] (setting [5]) is 4.48e-05 s⁻¹. In addition, in assay [3] (setting [6]), the kinact/KI came out at 287 M⁻¹ s⁻¹.
In the same order, the values of `C=CC(=O)N1CCC(N2CCC(c3cc4c(c(C)n3)OCc3c(N5CCOCC5)ccnc3N4)CC2)CC1` [compound 324] are 0.0237 µM, 5.03e-05 s⁻¹ and 2120 M⁻¹ s⁻¹.
In the same order, the values of `C=CC(=O)N1CC(N2CC(c3cc4c(c(P(C)(C)=O)n3)OCc3c(N5CCOCC5)ccnc3N4)C2)C1` [compound 331] are 0.204 µM, 6.25e-05 s⁻¹ and 306 M⁻¹ s⁻¹.
As for `C=CC(=O)N1CCC(n2ccc(-c3cc4c(c(C)n3)OCc3c(N5CCOCC5)ccnc3N4)cc2=O)CC1` [compound 419], the Ki in assay [3] (setting [4]) turned out to be 0.273 µM. Further, the kinact in assay [3] (setting [5]) was 3.95e-05 s⁻¹. Also, the kinact/KI in assay [3] (setting [6]) was 144 M⁻¹ s⁻¹.
